In patent US5086056A, “2-(heterocyclylalkyl)imidazopyridines” (Janssen Pharmaceutica N.V., priority 1987, dated 1992):

tested on: compound 48/80-induced lethality; assay: Protection of rats from compound 48/80-induced lethality; format: in vivo, rat (male, inbred Wistar strain); settings: Rattus norvegicus; dose protecting 50% of animals; s.c. or oral, 1 hour before compound 48/80 0.5 mg/kg i.v.; survival after 4 hours; read-out: compound 48/80 lethality test in rats-ED50
Text: Protection of rats from compound 48/80-induced lethality
Compound 48/80, a mixture of oligomers obtained by condensation of 4-methoxy-N-methylbenzeneethanamine and formaldehyde has been described as a potent histamine releasing agent (Int. Arch. Allergy, 13, 336 (1958)). The protection from compound 48/80-induced lethal circulatory collapse appears to be a simple way of evaluating quantitatively the antihistaminic activity of test compounds. Male rats of an inbred Wistar strain, weighing 240-260 g were used in the experiment. After overnight starvation the rats were transferred to conditioned laboratories (temp.=21°±1° C., relative humidity=65±5%). The rats were treated subcutaneously or orally with a test compound or with the solvent (NaCl solution, 0.9%). One hour after treatment there was injected intraveneously compound 48/80, freshly dissolved in water, at a dose of 0.5 mg/kg (0.2 ml/100 g of body weight). In control experiments, wherein 250 solvent-treated animals were injected with the standard dose of compound 48/80, not more than 2.8% of the animals survived after 4 hours. Survival after 4 hours is therefore considered to be a safe criterion of a protective effect of drug administration. Said ED50 -values are the values in mg/kg body weight at which the tested compounds protect 50% of the tested animals against compound 48/80-induced lethality.

First: Cc1ccc(Cn2c(CN3CCN(C)CC3)nc3cccnc32)o1 [Compound 14, 3-[(5-methyl-2-furanyl)methyl]-2-[ (4-methyl-1-piperazinyl)methyl]-3H-imidazo[4,5-b]pyridine]
Second: CCOCCn1c(CN2CCN(C)CC2)nc2cccnc21 [Compound 17, 3-(2-ethoxyethyl)-2-[(4-methyl-1-piperazinyl)methyl]-3H-imidazo[4,5-b]pyridine]
The ED50 of the first is 4-fold lower: 0.01 mg/kg for the first, 0.04 mg/kg for the second.

Compared with `CCOCCN1CCN(Cc2nc3cccnc3n2CCOCC)CC1` [Compound 42], `CCOCCn1c(CN2CCN(CCCC(C)=O)CC2)nc2cccnc21` [Compound 44] is 4-fold lower in ED50: 0.02 mg/kg for the first, 0.005 mg/kg for the second.

`CCOCCn1c(CN2CCN(CCc3ccc(OC)cc3)CC2)nc2cccnc21` [Compound 47] and `CCOCCn1c(CN2CCN(CCCOc3ccc(F)cc3)CC2)nc2cccnc21` [Compound 79, 3-(2-ethoxyethyl)-2-[[4-[3-(4-fluorophenoxy)propyl]-1-piperazinyl]methyl]-3H-imidazo[4,5-b]pyridine] are the same in ED50: 0.02 mg/kg for the first, 0.02 mg/kg for the second.

Going from `CCOCCn1c(CN2CCN(CCc3scnc3C)CC2)nc2cccnc21` [Compound 74, 3-(2-ethoxyethyl)-2-[[4-[2-(4-methyl-5-thiazolyl)ethyl]-1-piperazinyl]methyl]-3H-imidazo[4,5-b]pyridine] to `CCOCCn1c(CN2CCN(CCc3ccccn3)CC2)nc2cccnc21` [Compound 120, 3-(2-ethoxyethyl)-2-[[4-[2-(2-pyridinyl)ethyl]-1-piperazinyl]methyl]-3H-imidazo[4,5-b]pyridine], the ED50 falls from 0.01 mg/kg to 0.005 mg/kg (2-fold).

`CCOCCn1c(CN2CCN(CCc3c(C)nc4ccccn4c3=O)CC2)nc2cccnc21` [Compound 76, 3-[2-[4-[[3-(2-ethoxyethyl)-3H-imidazo[4,5-b]pyridin-2-yl]methyl]-1-piperazinyl]ethyl]-2-methyl-4H-pyrido[1,2-a]pyrimidin-4-one] and `CCOCCn1c(CN2CCN(CCCn3c(=O)[nH]c4ccccc43)CC2)nc2cccnc21` [Compound 77, 1-[3-[4-[[3-(2-ethoxyethyl)-3H-imidazo[4,5-b]pyridin-2-yl]methyl]-1piperazinyl]propyl]-1,3-dihydro-2H-benzimidazol-2-one] are the same in ED50: 0.02 mg/kg for the first, 0.02 mg/kg for the second.

First: CCOCCn1c(CN2CCN(CCC(=O)NC(C)C)CC2)nc2cccnc21 [Compound 93, 4-[[3-(2-ethoxyethyl)-3H-imidazo[4,5-b]pyridin-2-yl]methyl]-N-(1-methylethyl)-1-piperazinepropanamide]
Second: CCOCCn1c(CN2CCN(CCNC(=O)c3cccn3C)CC2)nc2cccnc21 [Compound 111, N-[2-[4-[[3-(2-ethoxyethyl)-3H-imidazo[4,5-b]pyridin-2-yl]methyl]-1-piperazinyl]ethyl]-1-methyl-1H-pyrrole-2-carboxamide]
The ED50 of the first is 2-fold lower: 0.01 mg/kg for the first, 0.02 mg/kg for the second.

`CCOCCn1c(CN2CCN(CCNc3ncccn3)CC2)nc2cccnc21` [Compound 105, N-[2-[-4-[[3-(2-ethoxyethyl)-3H-imidazo[4,5-b]pyridin-2-yl]methyl]-1-piperazinyl]ethyl]-2-pyrimidinamine] and `CCOCCn1c(CN2CCN(CCNC(=O)c3ccoc3)CC2)nc2cccnc21` [Compound 110, N-[2-[4-[[3-(2-ethoxyethyl)-3H-imidazo[4,5-b]pyridin-2-yl]methyl]-1-piperazinyl]ethyl]-3-furancarboxamide] are the same in ED50: 0.01 mg/kg for the first, 0.01 mg/kg for the second.

`C#CCOCCn1c(CN2CCN(C)CC2)nc2cccnc21` [Compound 125, 2-[(4-methyl-1-piperazinyl)methyl]-3-[2-(2-propynyloxy)ethyl]-3H-imidazo[4,5-b]pyridine] and `C=CCOCCn1c(CN2CCN(C)CC2)nc2cccnc21` [Compound 126, 2-[(4-methyl-1-piperazinyl)methyl]-3-[2-(2-propenyloxy)ethyl]-3H-imidazo[4,5-b]pyridine] are the same in ED50: 0.02 mg/kg for the first, 0.02 mg/kg for the second.
